≈ marks a conversion by molar mass, not a printed value. One block for each compound: values may come before it.
solubility (25 °C): 9.87e-05 mM (≈ 0.032 µg/mL)
SMILES: Cc1c(Cl)ccc(OC(C)C(O)=Nc2ccccc2)c1Cl (stereo unspecified)

solubility (25 °C): 0.0113 mM (≈ 3.54 µg/mL)
SMILES: CC(C)(N=C(O)C(Br)C(C)(C)C)c1ccccc1 (stereo unspecified)

solubility (25 °C): 0.000999 mM (≈ 0.4 µg/mL)
SMILES: CON(C)C(=O)Nc1ccc(Oc2ccc3c(c2)OC(C)(OC)CC3(C)C)cc1 (stereo unspecified)

SMILES: Cc1ccccc1C(=O)Nc1cccc(OC(C)C)c1
solubility (20 °C): 0.0472 mM (≈ 12.7 µg/mL)

logP: 3.36 | solubility (25 °C): 0.0256 mM (≈ 9.8 µg/mL)
SMILES: CC(Oc1ccc(Oc2ncc(Cl)cc2Cl)cc1)C(=O)N1CCCO1 (stereo unspecified)

logP: 3.7
SMILES: CCCCC(CC)CN1C(=O)C2C3C=CC(C3)C2C1=O (stereo unspecified)

solubility (20 °C): 0.648 mM (≈ 184 µg/mL)
SMILES: CCc1cccc(C)c1N(COC(C)C)C(=O)CCl

SMILES: Cc1nc(N(C)C)nc(OC(=O)N(C)C)c1C
logP: 1.7

logP: 3.64
SMILES: CCCCCCCCSCCO

SMILES: c1coc(-c2nc3ccccc3[nH]2)c1
logP: 2.67

solubility (20 °C): 0.447 mM (≈ 120 µg/mL)
SMILES: CN(C(O)=NC(C)(C)c1ccccc1)c1ccccc1

SMILES: O=C(O)CCCOc1ccc(Cl)cc1Cl
solubility (25 °C): 0.213 mM (≈ 53 µg/mL)

logP: 4.99 | solubility (25 °C): 0.000446 mM (≈ 0.189 µg/mL)
SMILES: CCCCCOC(=O)COc1cc(N2C(=O)C3=C(CCCC3)C2=O)c(F)cc1Cl

logP: 3.28
SMILES: CN(C)C(=O)SCCCCOc1ccccc1

SMILES: CN(C)C(O)=Nc1ccc(-n2nc(C(C)(C)C)oc2=O)c(Cl)c1
logP: 2.51

logP: 3.43 | solubility (23 °C): 0.0931 mM (≈ 24 µg/mL)
SMILES: CCN(CC)C(=O)SCc1ccccc1Cl

logP: -0.17 | solubility (25 °C): 21.9 mM (≈ 4600 µg/mL)
SMILES: CC1=C(C)S(=O)(=O)CCS1(=O)=O

SMILES: CCOP(=O)(N=C1SCC(C)S1)OCC (stereo unspecified)
solubility (25 °C): 0.212 mM (≈ 57 µg/mL)

SMILES: CCOC(=O)Nc1cccc(OC(=O)Nc2ccccc2)c1
logP: 3.39

SMILES: N#Cc1c[nH]cc1-c1cccc(Cl)c1Cl
logP: 3.86 | solubility (25 °C): 0.0202 mM (≈ 4.8 µg/mL)

SMILES: CCOC(=O)c1cnn(C)c1S(=O)(=O)NC(=O)Nc1nc(OC)cc(OC)n1
solubility (20 °C): 0.035 mM (≈ 14.5 µg/mL)

SMILES: CC1(C)CON(Cc2ccccc2Cl)C1=O
logP: 2.5

solubility (20 °C): 0.258 mM
SMILES: NCCO.O=C(Nc1ccc([N+](=O)[O-])cc1Cl)c1cc(Cl)ccc1O

SMILES: CCOP(=S)(NC(C)CC)Oc1cc(C)ccc1[N+](=O)[O-] (stereo unspecified)
logP: 4.62 | solubility (25 °C): 0.0169 mM (≈ 5.62 µg/mL)

SMILES: OC(c1ccc(F)cc1)(c1cncnc1)c1ccccc1Cl (stereo unspecified)
logP: 3.18 | solubility (pH 7.0, 25 °C): 0.0826 mM (≈ 26 µg/mL)

SMILES: CCOc1ccc(C(C)(C)COCc2cccc(Oc3ccccc3)c2)cc1
logP: 7.05

logP: 4.32 | solubility (25 °C): 0.00933 mM (≈ 4 µg/mL)
SMILES: CC(Oc1ccc(Oc2cnc3cc(Cl)ccc3n2)cc1)C(=O)OCC1CCCO1 (stereo unspecified)

SMILES: COC(=O)/C(C)=C/OP(=S)(OC)OC
solubility (20 °C): 1.67 mM (≈ 400 µg/mL)

SMILES: CCCSP(=O)(OCC)Oc1cnn(-c2ccc(Cl)cc2)c1 (stereo unspecified)
solubility (20 °C): 0.0915 mM (≈ 33 µg/mL)

solubility (25 °C): 0.00155 mM (≈ 0.5 µg/mL)
SMILES: O=C(OCc1ccccc1)c1sc(Cl)nc1C(F)(F)F

SMILES: CC1(C)C(C=C(Cl)Cl)C1C(=O)OC(C#N)c1ccc(F)c(Oc2ccccc2)c1 (stereo unspecified)
logP: 5.95

logP: 2.04
SMILES: COCCOc1ccccc1S(=O)(=O)N=C(O)N=c1nc(OC)[nH]c(OC)n1

SMILES: C/C=C\COCN(C(=O)CCl)c1c(CC)cccc1CC
solubility (27 °C): 0.0936 mM (≈ 29 µg/mL)

SMILES: O=C(NC(=O)c1c(F)cccc1F)Nc1cc(Cl)c(Oc2ncc(C(F)(F)F)cc2Cl)c(Cl)c1
logP: 5.8

SMILES: O=C1C(Cl)C(CCl)CN1c1cccc(C(F)(F)F)c1 (stereo unspecified)
logP: 3.36

SMILES: CC(C)(C)C(O)/C(=C\c1ccc(Cl)cc1Cl)n1cncn1 (stereo unspecified)
solubility (25 °C): 0.0123 mM (≈ 4 µg/mL)

SMILES: COc1nc(NC(C)C)nc(NC(C)C)n1
solubility (25 °C): 3.33 mM (≈ 750 µg/mL)

solubility (20 °C): 14.8 mM (≈ 3500 µg/mL)
SMILES: CCNC(=O)C(C)OC(=O)Nc1ccccc1 (stereo unspecified)

SMILES: O=c1ccc(=O)[nH][nH]1
solubility (25 °C): 53.5 mM (≈ 6000 µg/mL)

SMILES: CCCCN(CCCC)SN(C)C(=O)Oc1cccc2c1OC(C)(C)C2
solubility (25 °C): 0.000788 mM (≈ 0.3 µg/mL)

SMILES: OC(Cn1cncn1)(c1ccc(F)cc1)c1ccccc1F (stereo unspecified)
solubility (pH 7.0, 20 °C): 0.431 mM (≈ 130 µg/mL)

solubility (24 °C): 0.943 mM (≈ 225 µg/mL)
SMILES: CCOC(=O)Cc1[nH]nc2ccc(Cl)cc12

SMILES: CC(C)C1(C)N=C(c2ncccc2C(=O)O)NC1=O (stereo unspecified)
solubility (25 °C): 43.3 mM (≈ 11300 µg/mL)

SMILES: CN(C)NC(=O)CCC(=O)O
solubility (25 °C): 624 mM (≈ 100000 µg/mL)

solubility (20 °C): 1.23 mM (≈ 250 µg/mL)
SMILES: O=C(O)CCCc1c[nH]c2ccccc12

SMILES: N=C(N)NCCCCCCCCNCCCCCCCCNC(=N)N
solubility: 2150 mM (≈ 764000 µg/mL)

SMILES: CNC(=O)Oc1cc(C)c(SC)c(C)c1
solubility (20 °C): 0.0729 mM (≈ 16.4 µg/mL)

solubility (20 °C): 0.103 mM (≈ 30.2 µg/mL)
SMILES: CC(C)(C)[C@@H](O)[C@@H](Cc1ccc(Cl)cc1)n1cncn1 (single isomer, unassigned)

SMILES: CC(C)C(O)(c1ccc(OC(F)(F)F)cc1)c1cncnc1 (stereo unspecified)
logP: 3.34 | solubility (20 °C): 0.365 mM (≈ 114 µg/mL)

logP: 2.76
SMILES: N#CC(=NOCC1OCCO1)c1ccccc1

SMILES: O=C(Nc1ccccc1)Nc1ccnc(Cl)c1
solubility (pH 6.4, 21 °C): 0.157 mM (≈ 39 µg/mL)

logP: 2.5
SMILES: CCOC(=O)Cn1c(=O)sc2cccc(Cl)c21

logP: 2.38
SMILES: CNc1nc(NC(C)C)nc(SC)n1

SMILES: CC(Oc1ccc(Oc2cnc3cc(Cl)ccc3n2)cc1)C(=O)O (stereo unspecified)
solubility (20 °C): 0.00087 mM (≈ 0.3 µg/mL)

solubility (30 °C): 0.00295 mM (≈ 1 µg/mL)
SMILES: O=C(Nc1ccc(Cl)cc1C(O)c1ccccc1)c1ccncc1 (stereo unspecified)

SMILES: O=C(NC(=O)c1c(F)cccc1F)Nc1ccc(CO/N=C(/c2ccc(Cl)cc2)C2CC2)cc1
logP: 6.97

SMILES: COP(=S)(OC)Oc1c(Cl)cc(C)cc1Cl
logP: 4.56 | solubility (25 °C): 0.0022 mM (≈ 0.663 µg/mL)

SMILES: C=C(C)CN(CC)c1c([N+](=O)[O-])cc(C(F)(F)F)cc1[N+](=O)[O-]
logP: 5.11

logP: 2.7 | solubility (20 °C): 0.0769 mM (≈ 20 µg/mL)
SMILES: CC1COc2ccccc2N1C(=O)C(Cl)Cl (stereo unspecified)

logP: 1 | solubility (20 °C): 91.3 mM (≈ 24200 µg/mL)
SMILES: C=CCNC(=O)CN(CC=C)C(=O)C(Cl)Cl

SMILES: CC(C)c1ccc(NC(=O)N(C)C)cc1
solubility (22 °C): 0.291 mM (≈ 60 µg/mL)

SMILES: COCC(C)N(C(=O)CCl)c1c(C)csc1C (stereo unspecified)
logP: 2.15 | solubility (25 °C): 4.35 mM (≈ 1200 µg/mL)

SMILES: Fc1ccc(C2(Cn3cncn3)OC2c2ccccc2Cl)cc1 (stereo unspecified)
logP: 3.44

SMILES: CCOP(=S)(OCC)OP(=S)(OCC)OCC
logP: 3.99

SMILES: CCCCCCCCn1sccc1=O
logP: 2.45

SMILES: Cc1cnc(C2=NC(=O)C(C)(C(C)C)N2)c(C(=O)O)c1 (stereo unspecified)
logP: 2.47 | solubility (25 °C): 8.11 mM (≈ 2230 µg/mL)

solubility (25 °C): 0.000301 mM (≈ 0.13 µg/mL)
SMILES: Cc1ccc(C(=O)COc2c(C(=O)c3ccc(Cl)c(C)c3Cl)c(C)nn2C)cc1

SMILES: CC(Oc1ccc(Oc2ccc(Cl)cc2Cl)cc1)C(=O)O (stereo unspecified)
logP: 4.58

SMILES: Clc1ccccc1-c1nnc(-c2ccccc2Cl)nn1
logP: 3.1

solubility: 9.23 mM (≈ 2000 µg/mL)
SMILES: O=C(O)COc1ccc(Cl)cc1CO

SMILES: Cc1cnc2c(C(=O)O)c(Cl)ccc2c1
solubility (20 °C): 1.01 mM (≈ 223 µg/mL)

SMILES: ClC1=C(Cl)C(Cl)(C2(Cl)C(Cl)=C(Cl)C(Cl)=C2Cl)C(Cl)=C1Cl
solubility (20 °C): 5.27e-05 mM (≈ 0.025 µg/mL)

SMILES: CC#Cc1cc(C)nc(Nc2ccccc2)n1
solubility (20 °C): 0.0139 mM (≈ 3.1 µg/mL)

SMILES: CCOCN(C(=O)CCl)c1c(C)cccc1CC
logP: 3.03

SMILES: CC1(C)CNC(=NN=C(/C=C/c2ccc(C(F)(F)F)cc2)/C=C/c2ccc(C(F)(F)F)cc2)NC1
logP: 2.31 | solubility (25 °C): 1.21e-05 mM (≈ 0.006 µg/mL)

SMILES: CN(C)S(=O)(=O)N(SC(F)(Cl)Cl)c1ccccc1
solubility (20 °C): 0.0039 mM (≈ 1.3 µg/mL)

solubility (pH 5.0, 25 °C): 0.000403 mM (≈ 0.17 µg/mL)
SMILES: COc1cc(OC)nc(N=C(O)NS(=O)(=O)Nc2ccccc2C(=O)C2CC2)n1

SMILES: CCOCn1c(-c2ccc(Cl)cc2)c(C#N)c(Br)c1C(F)(F)F
logP: 4.83

SMILES: C=CCN(CC=C)C(=O)C(Cl)Cl
logP: 1.84

SMILES: O=C1c2ccccc2C(=O)C1C(=O)C(c1ccccc1)c1ccc(Cl)cc1 (stereo unspecified)
solubility (20 °C): 0.267 mM (≈ 100 µg/mL)

SMILES: CCCSP(=S)(OCC)Oc1ccc(Cl)cc1Cl (stereo unspecified)
logP: 5.67

SMILES: O=C1CCc2cccc3c2N1CC3
logP: 1.57

SMILES: CNC(=O)O/N=C(\C)C(C)S(C)(=O)=O (stereo unspecified)
solubility (20 °C): 940 mM (≈ 209000 µg/mL)

SMILES: COP(=S)(OC)SCC(=O)N(c1ccc(Cl)cc1)C(C)C
logP: 3.81

logP: 4.35 | solubility (25 °C): 0.0163 mM (≈ 4.9 µg/mL)
SMILES: CCC1OCC(COc2ccc(Oc3ccccc3)cc2)O1 (stereo unspecified)

SMILES: CCCN(CCC)C(=O)SCc1ccccc1
logP: 4.65 | solubility (20 °C): 0.0525 mM (≈ 13.2 µg/mL)

solubility (25 °C): 0.00919 mM (≈ 2.5 µg/mL)
SMILES: O=C1OCc2c(Cl)c(Cl)c(Cl)c(Cl)c21

SMILES: CNC(=O)N(C)c1nc2ccccc2s1
logP: 2.64

logP: 3.57
SMILES: CCCOC(=O)c1ccc(C(=O)OCCC)nc1
